Data on 27 compounds can be found in patent US8053459B1, “Selenolopyrazole derivatives and use thereof as anticancer agents” (China Medical University, priority 2010, dated 2011).

pIC50: −log10 of the molar value. Where only a bound is given, the exact number is not on record here.

In data set [1] the test system is human lung cancer cell lines (NCI-H226). Kind of data set: MTT cytotoxicity assay, NCI-H226. The conditions noted are these: for pIC50: Homo sapiens, read-out: IC50 (concentration of 50% proliferation-inhibitory effect) NCI-H226, NCI-H226 cells, 48 h treatment, MTT, mean of three independent experiments; for potency in inhibiting proliferation of NCI-H226 human cancer cell line: summary statement on Table 1. The data set is classed as cell-based. The procedure: (§1) The human lung cancer cell lines (NCI-H226) and human renal cancer cell lines (A-498) were purchased from the ATCC (Manassas, Va.). The NCI-H226 and A498 cells were cultured in RPMI-1640 and DMEM medium (GIBCO) respectively, supplemented with 10% FBS, penicillin (100 unit/mL)/streptomycin (100 μg/mL) and 1% L-glutamine. All cells were grown in a humidified atmosphere containing 5% CO2 at 37° C. The cytotoxicity was assessed using 3-(4,5-dimethylthiazol-2-yl)-2,5-diphenyltetrazolium bromide (MTT) assay. NCI-H226 and A498 cells were seeded at 1×10^4 cells/well into 96-well plates. After 24 h incubation to allow for cell attachment, cells were treated with test compounds for 48 h. After treatment, cells were washed once with PBS and incubated with 1 mg/ml MTT (Sigma, St. Louis, Mo., USA) for 2 h. Then the formazan precipitate was dissolved in […] DMSO and the absorbance was measured on an ELISA reader at a best wavelength of 570 nm.
(In general: Tetrazolium assays rely on reduction of a dye to a coloured formazan, in cell work by metabolically active cells.)

In data set [2] the test system is human renal cancer cell lines (A-498). Kind of data set: MTT cytotoxicity assay, A498. The data set is classed as cell-based. The conditions noted are these: for pIC50: Homo sapiens, read-out: IC50 (concentration of 50% proliferation-inhibitory effect) A498, A498 cells, 48 h treatment, MTT, mean of three independent experiments; for potency in inhibiting proliferation of A498 human cancer cell line: summary statement on Table 1. The procedure: as §1

`OCc1ccc(-c2nn(-c3ccccc3F)c3cc[se]c23)o1` gave a melting point of 178 to 181 °C.
Regarding `COC(=O)c1ccc(-c2nn(-c3ccc(F)cc3)c3cc[se]c23)o1` [Compound 40, 3-(5-Methoxycarbonyl-2-furyl)-1-(4-fluorophenyl)selenolo-[3,2-c]pyrazole], the pIC50 in data set [1] and in data set [2] was less than 4.00 each time.
In the case of `OCc1ccc(-c2nn(-c3ccccc3)c3cc[se]c23)cc1` [Compound 68, 1-Phenyl-3-(p-hydroxymethylphenyl)selenolo[3,2-c]pyrazole], the melting point lay within 133 to 134 °C.
`COC(=O)c1ccc(-c2nn(-c3cccc(Cl)c3)c3cc[se]c23)o1` [Compound 37, 3-(5-Methoxycarbonyl-2-furyl)-1-(3-chlorophenyl)selenolo-[3,2-c]pyrazole] yielded a melting point of 107 to 109 °C. In addition, the pIC50 in data set [1] is less than 4.00. Further, in data set [2], the pIC50 was less than 4.00.
For `Cc1cccc(-n2nc(-c3ccc(CO)o3)c3[se]ccc32)c1` [Compound 44, 3-(5-Hydroxymethyl-2-furyl)-1-5-methyl-phenylselenolo[3,2-c]pyrazole], in data set [1], the pIC50 is 4.60 and the “potency in inhibiting proliferation of NCI-H226 human cancer cell line” value is listed as “significant potency”. Further, in data set [2], the pIC50 is 5.70 and the “potency in inhibiting proliferation of A498 human cancer cell line” value is reported as “significant potency”.
Regarding `O=C(O)c1ccc(-c2nn(-c3ccccc3)c3cc[se]c23)o1` [Compound 48, 3-(5-Hydroxycarbonyl-2-furyl)-1-phenylselenolo[3,2-c]pyrazole], the melting point was in the range of 234 to 237 °C.
For `O=C(O)c1ccc(-c2nn(Cc3ccccc3)c3cc[se]c23)o1` [Compound 59, 1-Benzyl-3-(5-hydroxycarbonyl-2-furyl)selenolo[3,2-c]pyrazole], the melting point lay within 243 to 244 °C.
For `COC(=O)c1ccc(-c2nn(-c3ccccc3)c3cc[se]c23)cc1` [Compound 66, 1-Phenyl-3-(p-methoxycarbonylphenyl)selenolo[3,2-c]pyrazole], the melting point fell in the range of 165 to 166 °C.
On the same count and under the same terms, the same measure for `Cc1cc2c([se]1)c(-c1ccc(C(=O)O)o1)nn2-c1ccccc1` [Compound 49, 3-(5-Hydroxycarbonyl-2-furyl)-1-phenyl-5-methylselenolo[3,2-c]pyrazole]: 236 to 239 °C.
For the compound `COC(=O)c1ccc(-c2nn(Cc3ccccc3)c3[se]ccc23)o1` [Compound 79, 1-Benzyl-3-(5-methoxycarbonyl-2-furyl)selenolo[2,3-c]pyrazole], the melting point was 121 to 123 °C. In data set [1], the pIC50 is less than 4.00. The pIC50 in data set [2] was less than 4.00.
Turning to `COC(=O)c1ccc(-c2nn(Cc3ccccc3)c3cc[se]c23)o1` [Compound 55, 1-Benzyl-3-(5-methoxycarbonyl-2-furyl)selenolo[3,2-c]-pyrazole], the melting point lay in the range of 130 to 131 °C.
Regarding `COC(=O)c1ccc(-c2nn(-c3ccccc3OC)c3cc[se]c23)o1` [Compound 41, 3-(5-Methoxycarbonyl-2-furyl)-1-(2-methoxyphenyl)selenolo-[3,2-c]pyrazole], the melting point fell in the range of 72 to 76 °C. Moreover, in data set [1], the pIC50 was less than 4.00. The pIC50 in data set [2] is less than 4.00.
Consider `OCc1ccc(-c2nn(-c3ccccc3)c3[se]ccc23)o1`, for which the melting point was in the range of 136 to 138 °C.
As to `COC(=O)c1ccc(-c2nn(-c3ccc(Cl)cc3)c3cc[se]c23)o1` [Compound 38, 3-(5-Methoxycarbonyl-2-furyl)-1-(4-chlorophenyl)selenolo-[3,2-c]pyrazole], the melting point lay within 146 to 148 °C. Further, the pIC50 in data set [1] was less than 4.00. In addition, the pIC50 in data set [2] was less than 4.00.
Regarding `Cc1cc2c([se]1)c(-c1ccc(CO)o1)nn2Cc1ccccc1` [Compound 58, 1-Benzyl-3-(5-hydroxymethyl-2-furyl)-5-methylselenolo[3,2-c]pyrazole], the melting point fell in the range of 147 to 148 °C.
Consider `COC(=O)c1ccc(-c2nn(-c3ccccc3)c3cc(C)[se]c23)o1` [Compound 35, 3-(5-Methoxycarbonyl-2-furyl)-1-phenyl-5-methylselenolo-[3,2-c]pyrazole], for which the melting point was in the range of 155 to 157 °C.
As to `COC(=O)c1ccc(-c2nn(-c3ccccc3)c3cc[se]c23)o1` [Compound 34, 3-(5-Methoxycarbonyl-2-furyl)-1-phenylselenolo[3,2-c]-pyrazole], the melting point lay in the range of 144 to 147 °C.
In turn, `COC(=O)c1ccc(-c2nn(-c3ccc(OC)cc3)c3cc[se]c23)o1` [Compound 42, 3-(5-Methoxycarbonyl-2-furyl)-1-(4-methoxyphenyl)selenolo-[3,2-c]pyrazole] showed a melting point of 89 to 92 °C. Moreover, the pIC50 in data set [1] is less than 4.00. The pIC50 in data set [2] was less than 4.00.
With `COC(=O)c1ccc(-c2nn(Cc3ccccc3)c3cc(C)[se]c23)o1` [Compound 56, 1-Benzyl-3-(5-methoxycarbonyl-2-furyl)-5-methylselenolo[3,2-c]pyrazole], the melting point lay within 142 to 145 °C.
Take `COC(=O)c1ccc(-c2nn(-c3ccccc3Cl)c3cc[se]c23)o1` [Compound 36, 3-(5-Methoxycarbonyl-2-furyl)-1-(2-chlorophenyl)selenolo-[3,2-c]pyrazole]: the melting point is 134 to 136 °C. Also, the pIC50 in data set [1] was less than 4.00. For the same compound, the pIC50 in data set [2] is less than 4.00.
In turn, `OCc1ccc(-c2nn(Cc3ccccc3)c3cc[se]c23)cc1` [Compound 69, 1-Benzyl-3-(p-hydroxymethylphenyl)selenolo[3,2-c]pyrazole] yielded a melting point of 158 to 160 °C.
`COC(=O)c1ccc(-c2nn(-c3ccccc3)c3[se]ccc23)o1` [Compound 78, 3-(5-Methoxycarbonyl-2-furyl)-1-phenylselenolo[2,3-c]-pyrazole] gave a melting point of 167 to 169 °C. For the same compound, the pIC50 in data set [1] is less than 4.00. For the same compound, the pIC50 in data set [2] was less than 4.00.
For `OCc1ccc(-c2nn(Cc3ccccc3)c3[se]ccc23)o1` [Compound 81, 1-Benzyl-3-(5-Hydroxymethyl-2-furyl)selenolo[2,3-c]pyrazole], the melting point is 130.2 to 131.3 °C. Further, the “potency in inhibiting proliferation of NCI-H226 human cancer cell line” value in data set [1] was “significant potency”. In addition, in data set [2], the pIC50 is 6.85 and the “potency in inhibiting proliferation of A498 human cancer cell line” value is on record as “significant potency”.
In the case of `COC(=O)c1ccc(-c2nn(-c3ccccc3F)c3cc[se]c23)o1` [Compound 39, 3-(5-Methoxycarbonyl-2-furyl)-1-(2-fluorophenyl)selenolo-[3,2-c]pyrazole], the pIC50 in data set [1] and in data set [2] was less than 4.00 in each case.
Compound `COC(=O)c1ccc(-c2nn(Cc3ccccc3)c3cc[se]c23)cc1` [Compound 67, 1-Benzyl-3-(p-methoxycarbonylphenyl)selenolo[3,2-c]pyrazole] yielded a melting point of 150 to 153 °C.
Compound `OCc1ccc(-c2nn(Cc3ccccc3)c3cc[se]c23)o1` [Compound 57, 1-Benzyl-3-(5-hydroxymethyl-2-furyl)selenolo[3,2-c]pyrazole] showed a melting point of 126 to 129 °C. In addition, in data set [1], the pIC50 is 5.85 and the “potency in inhibiting proliferation of NCI-H226 human cancer cell line” value was “significant potency”. For the same compound, in data set [2], the pIC50 was 6.40 and the “potency in inhibiting proliferation of A498 human cancer cell line” value was “significant potency”.
`O=C(O)CCC(=O)OCc1ccc(-c2nn(Cc3ccccc3)c3cc[se]c23)o1` [Compound 60, Succinic Acid mono-[5-(1-benzyl-selenolo[3,2-c]pyrazol-3-yl)furan-2-yl]methyl ester]: the melting point is 111 to 114 °C. Moreover, in data set [1], the pIC50 is 5.66 and the “potency in inhibiting proliferation of NCI-H226 human cancer cell line” value is “significant potency”. In data set [2], the pIC50 was 6.10 and the “potency in inhibiting proliferation of A498 human cancer cell line” value was “significant potency”.

Usually melting point stands for the temperature, or range, at which the solid turns liquid.
